From paper PMC8710297, “Identification of potent SENP1 inhibitors that inactivate SENP1/JAK2/STAT signaling pathway and overcome platinum drug resistance in ovarian cancer” (Clinical and Translational Medicine, 2021)

System: STAT3
Test: IHC staining of pSTAT3 in xenograft tumor samples
Format: in vivo, mice
Settings: IGROV1 CR xenograft tumor samples
Description: Cell viability was measured by SRB assay. […] Data were represented as mean ± SD (n = 3). (B) Colony formation assay in cells treated as indicated. […] (D) Growth curves of xenograft tumors are shown in (C). Data are represented as means ± SEM, n = 6 mice/group. **p < 0.01. […] (F) IGROV1 CR xenograft tumor growth curve by indicated treatments. Data are represented as means ± SD, n = 6 tumors/group. **p < 0.01. (G) Immunohistochemistry (IHC) staining against pSTAT3 antibodies of tumor samples from four groups of mice (magnification, 200x) (Upper).
Immun ohistochemical (IHC) sta i n in g an d scor ing we r e performed as prev iou sl y described (2).
The qu anti ficatio n of immunohistochemical sta in ing wa s scored blindly at lea st by two independent obser vers. Antibodies used in IHC as say are: SENP1 (ab108981, Abcam, Cambridge, UK), JA K 2 , p‐STAT 3 (ab76315; Abcam), Bc l‐xL (2764S; Cell Signaling Technology) (#3776, Cell Signaling Technologies, Danvers, MA, USA).
11. Cellular thermal shift assay and in vitro thermal shift assay
Cellular thermal shift assay was as previously described (5). Briefly, cells were pretreated with MG132 (10 µM, 1 hour) then incubated wi th DMSO, Mc, UA or UAMMC9 (2 µM) for 4 hours. […]

C[C@H]1[C@H](C)CC[C@]2(C(=O)NCC(=O)N(C)CCO)CC[C@]3(C)C(=CC[C@@H]4[C@@]5(C)CC[C@H](O)C(C)(C)[C@@H]5CC[C@]43C)[C@H]12 [UAMMC9]
activation of STAT3 in vivo (pSTAT3 IHC): inhibit the activation of STAT3
